Data published in the supplement of paper PMC10307832.

Legend:
Assay in all cases: relative viability (nuclei count vs DMSO), 5 days (fraction); higher = more cells survive
AZ628 + Pictilisib = compound: CC1=C(C=C(C=C1)NC(=O)C2=CC(=CC=C2)C(C)(C)C#N)NC3=CC4=C(C=C3)N=CN(C4=O)C [AZ628] + CS(=O)(=O)N1CCN(Cc2cc3nc(-c4cccc5[nH]ncc45)nc(N4CCOCC4)c3s2)CC1 [Pictilisib] (partner 1 µM)
Method in brief: (§1)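 Lung cancer cell lines were pin-tool dosed in 1536-well plates on the day after seeding, with either a lone drug or a fixed anchor-drug dose plus five library-drug doses (not always all listed) in √10 steps. Nuclei were counted on 4× images after 5 days. Relative viability is the ratio of treated-well to vehicle-well nuclei counts, with each value a median of duplicate plates.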

QS11 + Pemetrexed = compound: C1CC2=C(C1)C=C(C=C2)OC3=NC(=C4C(=N3)N(C=N4)CC5=CC=C(C=C5)C6=CC=CC=C6)N[C@@H](CC7=CC=CC=C7)CO [QS11] + Nc1nc2[nH]cc(CCc3ccc(C(=O)N[C@@H](CCC(=O)O)C(=O)O)cc3)c2c(=O)[nH]1 [Pemetrexed] (partner 0.2 µM)
Method in brief: as §1

QS11 + Vorinostat = compound: C1CC2=C(C1)C=C(C=C2)OC3=NC(=C4C(=N3)N(C=N4)CC5=CC=C(C=C5)C6=CC=CC=C6)N[C@@H](CC7=CC=CC=C7)CO [QS11] + O=C(CCCCCCC(=O)Nc1ccccc1)NO [Vorinostat] (partner 1 µM)
Method in brief: as §1

QS11 + OSI-027 = compound: C1CC2=C(C1)C=C(C=C2)OC3=NC(=C4C(=N3)N(C=N4)CC5=CC=C(C=C5)C6=CC=CC=C6)N[C@@H](CC7=CC=CC=C7)CO [QS11] + COc1cccc2cc(-c3nc([C@H]4CC[C@H](C(=O)O)CC4)n4ncnc(N)c34)[nH]c12 [OSI-027] (partner 0.5 µM)
Method in brief: as §1

Cell Line | relative viability (AZ628 + Pictilisib; first compound 0.08 µM) | relative viability (AZ628 + Pictilisib; first compound 0.253 µM) | relative viability (AZ628 + Pictilisib; first compound 0.8 µM) | relative viability (AZ628 + Pictilisib; first compound 2.53 µM) | relative viability (AZ628 + Pictilisib; first compound 8 µM) | relative viability (QS11 + Pemetrexed; first compound 0.08 µM) | relative viability (QS11 + Pemetrexed; first compound 0.253 µM) | relative viability (QS11 + Pemetrexed; first compound 0.8 µM) | relative viability (QS11 + Pemetrexed; first compound 2.53 µM) | relative viability (QS11 + Pemetrexed; first compound 8 µM) | relative viability (QS11 + Vorinostat; first compound 0.08 µM) | relative viability (QS11 + Vorinostat; first compound 0.253 µM) | relative viability (QS11 + Vorinostat; first compound 0.8 µM) | relative viability (QS11 + Vorinostat; first compound 2.53 µM) | relative viability (QS11 + Vorinostat; first compound 8 µM) | relative viability (QS11 + OSI-027; first compound 0.08 µM) | relative viability (QS11 + OSI-027; first compound 0.253 µM) | relative viability (QS11 + OSI-027; first compound 0.8 µM) | relative viability (QS11 + OSI-027; first compound 2.53 µM) | relative viability (QS11 + OSI-027; first compound 8 µM)
NCI-H2405 | 0.222 | 0.249 | 0.256 | 0.255 | 0.257 | 1.01 | 1.02 | 0.974 | 1.05 | 1.05 | 1.12 | 0.957 | 0.766 | 1.06 | 0.974 | 0.626 | 0.663 | 0.64 | 0.654 | 0.694
HOP-62 | 0.607 | 0.6 | 0.511 | 0.441 | 0.211 | 0.414 | 0.371 | 0.276 | 0.23 | 0.283 | 0.556 | 0.564 | 0.533 | 0.416 | 0.447 | 0.879 | 0.845 | 0.811 | 0.65 | 0.837
NCI-H1651 | 0.698 | 0.685 | 0.587 | 0.537 | 0.599 | 0.575 | 0.616 | 0.582 | 0.598 | 0.584 | 0.555 | 0.518 | 0.527 | 0.571 | 0.564 | 0.618 | 0.645 | 0.733 | 0.625 | 0.662
NCI-H2085 | 0.506 | 0.413 | 0.408 | 0.386 | 0.378 | 0.879 | 0.841 | 0.925 | 1.04 | 1.01 | 0.743 | 0.72 | 0.699 | 0.912 | 0.806 | 0.724 | 0.655 | 0.886 | 0.724 | 0.831
NCI-H2023 | 0.218 | 0.23 | 0.236 | 0.196 | 0.202 | 0.293 | 0.276 | 0.241 | 0.197 | 0.194 | 0.417 | 0.655 | 0.527 | 0.759 | 0.318 | 0.477 | 0.344 | 0.52 | 0.486 | 0.364
UMC-11 | 0.976 | 0.805 | 0.845 | 0.752 | 0.76 | 0.87 | 0.89 | 0.716 | 0.97 | 0.993 | 0.385 | 0.373 | 0.462 | 0.37 | 0.459 | 0.474 | 0.481 | 0.501 | 0.492 | 0.57
NCI-H23 | 0.407 | 0.319 | 0.261 | 0.312 | 0.246 | 0.766 | 0.582 | 0.694 | 0.657 | 0.689 | 0.542 | 0.6 | 0.564 | 0.544 | 0.491 | 0.626 | 0.516 | 0.52 | 0.453 | 0.305
NCI-H1355 | 0.454 | 0.395 | 0.404 | 0.34 | 0.285 | 1.03 | 0.993 | 0.782 | 1.08 | 1.02 | 0.732 | 0.62 | 0.529 | 0.597 | 0.554 | 0.392 | 0.324 | 0.334 | 0.35 | 0.334
NCI-H1734 | 0.432 | 0.359 | 0.351 | 0.367 | 0.306 | 0.374 | 0.393 | 0.393 | 0.472 | 0.424 | 0.79 | 0.82 | 0.779 | 0.792 | 0.672 | 0.66 | 0.548 | 0.594 | 0.517 | 0.49
EPLC-272H | 0.273 | 0.232 | 0.236 | 0.266 | 0.231 | 0.306 | 0.366 | 0.344 | 0.313 | 0.315 | 0.371 | 0.55 | 0.442 | 0.479 | 0.276 |  | 0.287 | 0.253 | 0.259 | 0.26
LXF-289 | 0.779 | 0.712 | 0.754 | 0.654 | 0.401 | 0.873 | 0.931 | 0.761 | 0.9 | 0.876 | 0.772 | 0.828 | 0.724 | 0.719 | 0.637 | 0.764 | 0.805 | 0.692 | 0.873 | 0.82
NCI-H520 | 0.312 | 0.313 | 0.273 | 0.212 | 0.204 | 0.791 | 0.871 | 0.863 | 0.783 | 0.488 | 0.758 | 0.758 | 0.639 | 0.804 | 0.88 | 0.196 | 0.265 | 0.297 | 0.175 | 0.268
NCI-H1395 | 0.645 | 0.621 | 0.618 | 0.629 | 0.662 | 0.84 | 0.911 | 1.09 | 0.917 | 1.16 | 0.649 | 0.752 | 0.772 | 0.814 | 0.823 | 0.603 | 0.718 | 0.626 | 0.735 | 0.637
H3255 | 0.457 | 0.499 | 0.463 | 0.398 | 0.225 | 0.578 | 0.632 | 0.532 | 0.562 | 0.53 | 0.763 | 0.947 |  | 0.758 | 0.861 | 0.593 | 0.675 |  | 0.558 | 0.608
NCI-H2170 | 0.386 | 0.305 | 0.354 | 0.337 | 0.275 | 0.271 | 0.288 | 0.243 | 0.274 | 0.287 | 0.819 | 0.85 | 0.664 | 0.796 | 1.07 | 0.691 | 0.692 | 0.703 | 0.8 | 0.743
NCI-H460 | 0.323 | 0.25 | 0.254 | 0.269 | 0.127 | 0.056 | 0.0683 | 0.0585 | 0.0792 | 0.0751 | 0.938 | 0.811 | 0.541 | 0.687 | 0.212 | 0.719 | 0.756 | 0.663 | 0.446 | 0.257
